Values of other authors as cited in patent publication US20020022057A1, “Oral delivery of pharmaceuticals via encapsulation” (priority 2000, published 2002).

Key:
[1] = applied topically to the skin
[2] = sublingual versus oral

SMILES | skin reactions, including erythema and peeling [1] | sublingual applications more effective than oral applications [2] [%]
CC(=O)Oc1ccccc1C(=O)O [Aspirin, aspirin] | 30 % of the subjects | –
CC(=O)[C@H]1CC[C@H]2[C@@H]3CCC4=CC(=O)CC[C@]4(C)[C@H]3CC[C@]12C [progesterone] | – | 50
